In patent US20090062243A1, “Lupane-Type Triterpenoids Modified at 30-Position and Analogues Thereof” (ADVANCED LIFE SCIENCES, INC., priority 2007, published 2009):

What was measured:
Format in all cases: cell-based
SK-MEL-2 (melanoma) = assay: MTS cell viability assay, SK-MEL-2
Procedure: (§1) Cells were plated, the evening before treatment, for each treatment on 96-well plates (1×10^4 cells/well) in 100 μL volume per well. Analog solutions were prepared by diluting each test compound in DSMO (10 mM) with the appropriate cell growth media for each individual cell line, or in “Universal Media” if several cell lines were to be assayed in parallel, immediately prior to cell treatment. Universal Media consisted of 5 mL sodium pyruvate (100× liquid stock, MediaTech), 5 mL glucose (100×, 45% liquid stock, MediaTech), 5 mL Penicillin/Streptomycin (100× liquid stock, MediaTech), 10 mL sodium bicarbonate (50× liquid stock, MediaTech), 25 mL Fetal Calf Serum, 1.25 mL insulin (4 mg/mL, Gibco) and […] RPMI media with 2 mM L-glutamine for a total volume of 500 mL.
(§2) Cells were treated by aspirating plating media from each well and adding 80 μL of betulinic acid (control) or each analog solution in serial dilutions to the adherent cells. All treatments were performed in triplicate. Growth media (80 μL) was added to 3 blank wells (no cells) to measure background from the growth media. Growth media alone (no DMSO or test compound) was added to 3 wells containing cells to measure the baseline MTS activity. Vehicle (DMSO) control in serial dilutions, added to cells, was also included to monitor basal toxicity from DMSO. Cells were incubated at 37° C. for 72 h, or 120 h for the OVCAR cell lines. MTS reagent (per 96-well plate) were prepared by combining 2 mL of MTS working solution (Cell Titer AQueous Non-Radioactive Cell Proliferation Assay, Promega, cat#G1112), 100 μL of 0.92 mg/mL phenazine methosulfate/Dulbecco's PBS and 2.1 mL growth media. MTS reagent (40 μL) were added to each well and incubated at 37° C. for 1.5 to 4 h. Plates were gently shaken by hand until solution in each well appeared homogenous. Absorbances at 490 nm were measured on a Wallac Victor II plate reader at multiple time points following the addition of MTS reagent for each plate. Triplicate absorbance (490 nm) measurements were averaged following background (no cell) subtraction for each drug concentration. Percent Cell Viability was calculated for each drug concentration using the following equation:
(§3) {[Absorbance(analog treated)]/[Absorbance(DMSO treated)]}×100%
(§4) Cytotoxicity dose response for the triterpenoid derivatives synthesized in SK-MEL-2 (melanoma), A-375 (melanoma), Daoy (glioblastoma), LN-229 (glioblastoma), OVCAR-3 (ovarian carcinoma), HT-29 (colon carcinoma), MCF-7 (breast carcinoma) cell lines using the standard MTS assay is summarized in Table 1. In Table 1, compounds 22a-d and compounds 23a-c refer to structures 22 and 23 in Scheme 5, respectively. Compounds 24aa-an and 24ba-bq refer to structure 24 in Scheme 6. Compounds 26a-e refer to structure 26 in Scheme 6. Compounds 36a-c refer to structure 36 in Scheme 10.

Daoy = assay: MTS cell viability assay, Daoy; conditions: cells incubated 72 h
Procedure: as §1, §2, §3, §4

MCF-7 (breast carcinoma) = assay: MTS cell viability assay, MCF-7
Procedure: as §1, §2, §3, §4

A-375 (melanoma) = assay: MTS cell viability assay, A-375
Procedure: as §1, §2, §3, §4

LN-229 (glioblastoma) = assay: MTS cell viability assay, LN-229
Procedure: as §1, §2, §3, §4

HT-29 (colon carcinoma) = assay: MTS cell viability assay, HT-29
Procedure: as §1, §2, §3, §4

[1] = Homo sapiens, SK-MEL-2, cells incubated 72 h
[2] = Homo sapiens, MCF7, cells incubated 72 h
[3] = Homo sapiens, A-375, cells incubated 72 h
[4] = Homo sapiens, LN-229, cells incubated 72 h
[5] = Homo sapiens, HT-29, cells incubated 72 h

Compound | IC50 (SK-MEL-2 (melanoma); [1]) [µM] | IC50 (Daoy; Homo sapiens, Daoy) [µM] | also measured
C=C(CO)[C@@H]1CC[C@]2(CO)CC[C@]3(C)[C@H](CC[C@@H]4[C@@]5(C)CC[C@H](O)C(C)(C)[C@@H]5CC[C@]43C)[C@@H]12 [Compound 8a] | > 75 | > 75 | –
C=C(C(=O)O)[C@@H]1CC[C@]2(C(=O)O)CC[C@]3(C)[C@H](CC[C@@H]4[C@@]5(C)CCC(=O)C(C)(C)[C@@H]5CC[C@]43C)[C@@H]12 [Compound 11] | > 75 | > 75 | –
C=C(CO)[C@@H]1CC[C@]2(COC(C)=O)CC[C@]3(C)[C@H](CC[C@@H]4[C@@]5(C)CCC(=O)C(C)(C)[C@@H]5CC[C@]43C)[C@@H]12 [Compound 12] | > 45 | > 45 | –
C=C(C(=O)O)[C@@H]1CC[C@]2(COC(C)=O)CC[C@]3(C)[C@H](CC[C@@H]4[C@@]5(C)CCC(=O)C(C)(C)[C@@H]5CC[C@]43C)[C@@H]12 [Compound 13a] | > 45 | > 45 | –
C=C(C(=O)O)[C@@H]1CC[C@]2(CO)CC[C@]3(C)[C@H](CC[C@@H]4[C@@]5(C)CCC(=O)C(C)(C)[C@@H]5CC[C@]43C)[C@@H]12 [Compound 13b] | > 75 | > 75 | –
C=C(C(=O)O)[C@@H]1CC[C@]2(CO)CC[C@]3(C)[C@H](CC[C@@H]4[C@@]5(C)CC[C@H](O)C(C)(C)[C@@H]5CC[C@]43C)[C@@H]12 [Compound 15] | > 75 | > 75 | –
C=C(COC(C)=O)[C@@H]1CC[C@]2(CO)CC[C@]3(C)[C@H](CC[C@@H]4[C@@]5(C)CCC(=O)C(C)(C)[C@@H]5CC[C@]43C)[C@@H]12 [Compound 16] | 43 | > 45 | –
C=C(COC(C)=O)[C@@H]1CC[C@]2(C(=O)O)CC[C@]3(C)[C@H](CC[C@@H]4[C@@]5(C)CCC(=O)C(C)(C)[C@@H]5CC[C@]43C)[C@@H]12 [Compound 17a, 30-O-acetyl betulonic acid] | > 45 | > 45 | –
C=C(CO)[C@@H]1CC[C@]2(C(=O)O)CC[C@]3(C)[C@H](CC[C@@H]4[C@@]5(C)CCC(=O)C(C)(C)[C@@H]5CC[C@]43C)[C@@H]12 [Compound 17b] | > 45 | > 45 | –
C=C(COC(C)=O)[C@@H]1CC[C@]2(C=O)CC[C@]3(C)[C@H](CC[C@@H]4[C@@]5(C)CCC(=O)C(C)(C)[C@@H]5CC[C@]43C)[C@@H]12 [Compound 18a] | > 45 | > 45 | –
C=C(CO)[C@@H]1CC[C@]2(C=O)CC[C@]3(C)[C@H](CC[C@@H]4[C@@]5(C)CCC(=O)C(C)(C)[C@@H]5CC[C@]43C)[C@@H]12 [Compound 18b] | > 75 | > 75 | –
C=C(COC(C)=O)[C@@H]1CC[C@]2(C(=O)O)CC[C@]3(C)[C@H](CC[C@@H]4[C@@]5(C)CC[C@H](O)C(C)(C)[C@@H]5CC[C@]43C)[C@@H]12 [Compound 19a] | > 45 | > 45 | –
C=C(CO)[C@@H]1CC[C@]2(C(=O)O)CC[C@]3(C)[C@H](CC[C@@H]4[C@@]5(C)CC[C@H](O)C(C)(C)[C@@H]5CC[C@]43C)[C@@H]12 [Compound 19b] | > 45 | > 45 | –
C=C(C=O)[C@@H]1CC[C@]2(C=O)CC[C@]3(C)[C@H](CC[C@@H]4[C@@]5(C)CCC(=O)C(C)(C)[C@@H]5CC[C@]43C)[C@@H]12 [Compound 20] | – | 34 | –
C=C(CNCCO)[C@@H]1CC[C@]2(COC3CCCCO3)CC[C@]3(C)[C@H](CC[C@@H]4[C@@]5(C)CCC(=O)C(C)(C)[C@@H]5CC[C@]43C)[C@@H]12 (stereo partly shown) [Compound 22a] | 17 | 21 | –
C=C(CNCCc1ccc(O)cc1)[C@@H]1CC[C@]2(COC3CCCCO3)CC[C@]3(C)[C@H](CC[C@@H]4[C@@]5(C)CCC(=O)C(C)(C)[C@@H]5CC[C@]43C)[C@@H]12 (stereo partly shown) [Compound 22c] | 7 | 13 | IC50 (MCF-7 (breast carcinoma); [2]): 6 µM; IC50 (A-375 (melanoma); [3]): 6 µM; IC50 (LN-229 (glioblastoma); [4]): 8 µM; IC50 (HT-29 (colon carcinoma); [5]): 4 µM
C=C(CNCCO)[C@@H]1CC[C@]2(COC3CCCCO3)CC[C@]3(C)[C@H](CC[C@@H]4[C@@]5(C)CCC(O)C(C)(C)[C@@H]5CC[C@]43C)[C@@H]12 (stereo partly shown) [Compound 23a] | 16 | 54 | –
C=C(CNCCO)[C@@H]1CC[C@]2(CO)CC[C@]3(C)[C@H](CC[C@@H]4[C@@]5(C)CCC(O)C(C)(C)[C@@H]5CC[C@]43C)[C@@H]12 (stereo partly shown) [Compound 23b] | 15 | 35 | –
C=C(CO)[C@@H]1CC[C@]2(COC3CCCCO3)CC[C@]3(C)[C@H](CC[C@@H]4[C@@]5(C)CCC(NC6CCC(O)CC6)C(C)(C)[C@@H]5CC[C@]43C)[C@@H]12 (stereo partly shown) [Compound 24ak] | – | – | IC50 (SK-MEL-2 (melanoma); cells incubated 72 h): 38 µM; IC50 (Daoy): 38 µM
C=C(CNCCO)[C@@H]1CC[C@]2(COC3CCCCO3)CC[C@]3(C)[C@H](CC[C@@H]4[C@@]5(C)CCC(N)C(C)(C)[C@@H]5CC[C@]43C)[C@@H]12 (stereo partly shown) [Compound 24ba] | 5 | 5 | IC50 (MCF-7 (breast carcinoma); [2]): 3 µM; IC50 (A-375 (melanoma); [3]): 3 µM; IC50 (LN-229 (glioblastoma); [4]): 15 µM; IC50 (HT-29 (colon carcinoma); [5]): 2 µM
C=C(CNCCO)[C@@H]1CC[C@]2(CO)CC[C@]3(C)[C@H](CC[C@@H]4[C@@]5(C)CCC(N)C(C)(C)[C@@H]5CC[C@]43C)[C@@H]12 (stereo partly shown) [Compound 24bb] | 6 | 5 | IC50 (MCF-7 (breast carcinoma); [2]): 2 µM; IC50 (A-375 (melanoma); [3]): 5 µM; IC50 (LN-229 (glioblastoma); [4]): 12 µM; IC50 (HT-29 (colon carcinoma); [5]): < 2 µM
C=C(CNCCO)[C@@H]1CC[C@]2(CO)CC[C@]3(C)[C@H](CC[C@@H]4[C@@]5(C)CCC(NCCOC)C(C)(C)[C@@H]5CC[C@]43C)[C@@H]12 (stereo partly shown) [Compound 24bc] | – | – | IC50 (SK-MEL-2 (melanoma); cells incubated 72 h): 8 µM; IC50 (MCF-7 (breast carcinoma); cells incubated 72 h): 11 µM; IC50 (Daoy): 5 µM; IC50 (A-375 (melanoma); cells incubated 72 h): 4 µM; IC50 (LN-229 (glioblastoma); cells incubated 72 h): 28 µM; IC50 (HT-29 (colon carcinoma); cells incubated 72 h): 2 µM
C=C(CNCCO)[C@@H]1CC[C@]2(COC3CCCCO3)CC[C@]3(C)[C@H](CC[C@@H]4[C@@]5(C)CCC(NCC(=O)OC)C(C)(C)[C@@H]5CC[C@]43C)[C@@H]12 (stereo partly shown) [Compound 24bd] | – | – | IC50 (SK-MEL-2 (melanoma); cells incubated 72 h): 16 µM; IC50 (Daoy): 16 µM
C=C(CNCCO)[C@@H]1CC[C@]2(COC3CCCCO3)CC[C@]3(C)[C@H](CC[C@@H]4[C@@]5(C)CCC(NCCc6ccc(O)cc6)C(C)(C)[C@@H]5CC[C@]43C)[C@@H]12 (stereo partly shown) [Compound 24be] | – | – | IC50 (SK-MEL-2 (melanoma); cells incubated 72 h): 2 µM; IC50 (MCF-7 (breast carcinoma); cells incubated 72 h): 5 µM; IC50 (Daoy): 0.5 µM; IC50 (A-375 (melanoma); cells incubated 72 h): < 2 µM; IC50 (LN-229 (glioblastoma); cells incubated 72 h): 18 µM; IC50 (HT-29 (colon carcinoma); cells incubated 72 h): < 2 µM
C=C(CNCCO)[C@@H]1CC[C@]2(COC3CCCCO3)CC[C@]3(C)[C@H](CC[C@@H]4[C@@]5(C)CCC(NC6CCC(O)CC6)C(C)(C)[C@@H]5CC[C@]43C)[C@@H]12 (stereo partly shown) [Compound 24bi] | – | – | IC50 (SK-MEL-2 (melanoma); cells incubated 72 h): 5 µM; IC50 (Daoy): 5 µM
C=C(CNCCc1ccc(O)cc1)[C@@H]1CC[C@]2(COC3CCCCO3)CC[C@]3(C)[C@H](CC[C@@H]4[C@@]5(C)CCC(N)C(C)(C)[C@@H]5CC[C@]43C)[C@@H]12 (stereo partly shown) [Compound 24bn] | 5 | 2 | –
CC(CNCCO)[C@@H]1CC[C@]2(CO)CC[C@]3(C)[C@H](CC[C@@H]4[C@@]5(C)CCC(O)C(C)(C)[C@@H]5CC[C@]43C)[C@@H]12 (stereo partly shown) [Compound 36b] | 16 | 54 | –
